Measured values: patent US20210277399A1, “Methods of Imaging and Tracking Nucleic Acids in Cells” (Emory University, priority 2020, published 2021)

Experiments:
[1] = test system: Neuro-2a cells; assay: Live cell imaging of mRNA in stress granules; format: cell-based, Mouse
Method: Experiments were performed to determine whether the MGD2/MGA system would be suitable for live cell imaging of endogenous mRNA localization and dynamics. Moreover, experiments were performed to determine whether one could simultaneously track the real-time localization properties of both RNA and proteins within a living cell. For this assay, Neuro-2a cells were co-transfected with expression plasmids for 1×MGA-mCDK6 and dual GFP-tagged G3BP1 protein. The expressed mRNA was labeled with MGD2 and photo crosslinked. The cells were then imaged to record the spatiotemporal features of both mRNA and protein in stress granules. […] Monitoring the signal intensity, the fluorescent signal generated from the MGD2 labeled granules was observed and remained consistent over >25 min of imaging.
After observing the motility and maturation of the granules, experiments were performed to determine whether one could also observe their dissolution. In mammalian cells, stress granules disassemble in the presence of small aliphatic molecules that disrupt weak hydrophobic interactions. Therefore, 1,6-hexanediol, an aliphatic alcohol commonly used for disassembly of stress granules was added. After arsenite-induced stress granule formation, the cells were incubated in 5% 1,6-hexanediol solution. The fluorescence signal of the labeled 1×MGA-mCDK6 was observed. […]

[2] = test system: 1×MGA-mGFP; assay: In vitro fluorescence enhancement of MGD2 with 1×MGA-mGFP mRNA; format: binding
Method: (§1) AcGFP mRNA appended with one or six copies of the aptamer sequence at the 5′ end, referred to as 1×MGA-mGFP and 6×MGA-mGFP, respectively, was transcribed.
(§2) The effect of UV-irradiation on the fluorescence enhancement was investigated.
(§3) A solution of 30 μM of MGD2 was mixed with 4 μM of the corresponding mRNA in 1×PBS (1.54 mM potassium monobasic, 155.17 mM sodium chloride, and 2.71 mM sodium phosphate dibasic with pH=7.2) and incubated at room temperature for 20 min. For comparison, a solution of MGD2 without any RNA was also prepared in 1×PBS. The fluorescence of these solutions was measured using a BioTek Cytation™ 5 plate reader with ex=620±20 nm and em=680±20 nm. The average fluorescence value from replicate experiments was used to calculate fluorescence enhancement.

[3] = test system: 6×MGA-mGFP; assay: In vitro fluorescence enhancement of MGD2 with 6×MGA-mGFP mRNA; format: binding
Method: as §1, §3

[4] = Fluorescence of MGD2 without any RNA in 1×PBS; format: physicochemical; details: MGD2 without RNA in 1×PBS; 30 μM MGD2; ex=620±20 nm, em=680±20 nm
Method: as §3

[5] = test system: control mGFP mRNA that does not contain the aptamer sequence; assay: Effect of UV-irradiation on fluorescence of MGD2 with control mRNA; format: binding; details: up to 15 minutes of UV-irradiation
Method: as §2, §3

[6] = test system: cellular RNA extracted from HeLa cells; assay: Determination of MGD2 selectivity in cellular RNA (agarose gel); format: biochemical; details: 10 min UV
Method: To determine the selectivity of MGD2 labeling, 6MGA-mGFP (200 ng) was spiked in into cellular RNA extracted from HeLa cells (400 ng) in 1×PBS. […] After 10 min of UV irradiation, the sample was mixed with equal volume of 50% glycerol solution and heated to 70° C. to denature the RNA. This sample was loaded on to 1% agarose gel containing 1% v/v Clorox® bleach2 and Sybr Gold™. After running the gel for 1 h at a constant 100 V, the gel was frozen with dry ice for 10 min and imaged using GE Amersham Typhoon™. This freezing step enhanced the fluorescence output of the malachite green molecule.
Experiments were performed to determine whether this would create problematic background signal during imaging. […] The collective observations from these experiments served as guidelines for irradiation time and dye concentrations used in subsequent cellular labeling experiments.

[7] = test system: Neuro-2a cells; assay: Fixed-cell imaging of MGA-functionalized mCDK6 in stress granules; format: cell-based, Mouse
Excerpt: Fixed cell experiments enable direct comparisons to FISH and validate labeling of the target RNA in cells. As a biological context for testing the labeling method, stress granules were selected. In response to stress conditions, cells form non-membrane-bound cytosolic […] RNA-protein assemblies to stall the translation of mRNA until the cells are no longer under stress. While most mRNAs can be concentrated to stress granules, different mRNAs have vastly distinct localization efficiencies. Using FISH, experiments indicate that the CDK6 mRNA is highly enriched in stress granules of mammalian cells CDK6 was used as a model system to fluorescently label and image the unique distribution pattern of the mRNA. Both the 6× and 1×MGA sequences were inserted at the 5′ end of the transcript, and the construct was placed under the control of the cytomegalovirus (CMV) promoter (FIG. 2A). Mouse neuroblastoma Neuro-2a cells were then transfected with these plasmids and incubated with 30 μM MGD2 for 20 min. The cells were then irradiated using 365 nm UV light to allow for covalent labeling of the aptamer. The media was replaced to washout excess dye, and cell stress conditions were induced by 45 min of arsenite exposure, a well characterized paradigm to induce formation of stress granules. Following fixation and immunofluorescence labeling of the stress granule marker protein (G3BP1), the cells were imaged using confocal microscopy.
To validate that the fluorescence signal observed was arising from labeling of the target CDK6 mRNA, the Neuro-2a cells were simultaneously incubated with FISH probes complementary to the CDK6 sequence but bearing a spectrally orthogonal fluorophore. This experiment also enabled us to directly compare the sensitivity of the MGA/MGD2 system to the commonly used FISH technique for RNA labeling in fixed cells. Following arsenite stress, MGD2 labeling, and cell fixation, the cells were incubated with our custom FISH probes. […] That may be because during FISH labeling, the fluorescent probe is hybridized after the RNA of interest is localized to granules. […]

[8] = 1×MGA-mGFP in the presence of MGD2
[9] = 6×MGA-mGFP in the presence of MGD2
[10] = 6MGA-mGFP 200 ng in 400 ng HeLa RNA, MGD2 50 μM

Row | emission maximum [2, 8] [nm] | excitation maximum [2, 8] [nm] | emission maximum [3, 9] [nm] | excitation maximum [3, 9] [nm] | Compound | effect on RNA granules ([1]; 5% 1,6-hexanediol, labeled 1×MGA-mCDK6) | incubation time after which signal from the protein granules disappeared ([1]; 5% hexanediol, after arsenite-induced stress granule formation) [min] | fluorescence enhancement after UV irradiation ([2]; 1×MGA-mGFP, after 15 minutes of UV irradiation (stabilized)) | fluorescence enhancement ([2]; MGD2 bound to 1×MGA-mGFP, prior to UV-irradiation) [fold] | fluorescence enhancement ([3]; MGD2 bound to 6×MGA-mGFP, prior to UV-irradiation) [fold] | fluorescence output (mean) [4] | fluorescence enhancement with control mRNA [5] | labeling of aptamer functionalized mRNA spiked into cellular RNA [6, 10] | labeling of cellular RNA [6, 10] | labeling of other cellular RNAs (bands in the MG channel) ([6]; MGD2 30 μM with 6×MGA-mGFP in presence of cellular RNA) | difference in fluorescence intensity of cytoplasmic mRNA granules, 1×MGA versus 6×MGA ([7]; 1×MGA reduced versus 6×MGA-functionalized mRNA) [fold] | sensitivity of RNA detection compared with FISH ([7]; 1×MGA- and 6×MGA-functionalized mRNAs, FISH probes complementary to CDK6) | labeling in control cells ([7]; cells transfected with CDK6 lacking the MGA sequence, MGD2 and UV irradiation)
1 | – | – | – | – | OCCCCCCO [1,6-hexanediol] | most of the RNA granules exhibited a more sustained structural integrity | 7 | – | – | – | – | – | – | – | – | – | – | –
2 | 660 | 625 | 660 | 625 | CN(C)c1ccc(C(=C2C=CC(=[N+](C)C)C=C2)c2ccc(NC(=O)CCC3(C)N=N3)cc2)cc1 [MGD2, N-(4-((4-(dimethylamino)phenyl)(4-(3-(3-methyl-3H-diazirin-3-yl) Propan amido)phenyl)methylene)cyclohexa-2,5-dien-1-ylidene)-N-methylmethanaminium Chloride] | – | – | approximately 140 fold | 251 | > 1000 | 6.25 | did not result in any detectable fluorescence enhancement | selectively labeled the aptamer functionalized mRNA | did not have any detectable labeling of cellular RNA | no bands from labeling of other cellular RNAs | ~2 | higher sensitivity for RNA detection than FISH | did not show any labeling
